# Activity calls are given as the source filed them. The calls are words filed in the database; no cut-off is given here.
# Legend:
# [1] = biological target: T1, Nuclear factor erythroid 2-related factor 2 (Rattus norvegicus) (UniProt O54968); experiment: Induction of NRF2/ARE enhancer activity rat PC12 cells transfected with ARE-firefly luciferase reporter gene at 10 uM after 24 hrs by luciferase assay; type: functional, cell-based; details: PC-12
# T1 sequence (whole entry): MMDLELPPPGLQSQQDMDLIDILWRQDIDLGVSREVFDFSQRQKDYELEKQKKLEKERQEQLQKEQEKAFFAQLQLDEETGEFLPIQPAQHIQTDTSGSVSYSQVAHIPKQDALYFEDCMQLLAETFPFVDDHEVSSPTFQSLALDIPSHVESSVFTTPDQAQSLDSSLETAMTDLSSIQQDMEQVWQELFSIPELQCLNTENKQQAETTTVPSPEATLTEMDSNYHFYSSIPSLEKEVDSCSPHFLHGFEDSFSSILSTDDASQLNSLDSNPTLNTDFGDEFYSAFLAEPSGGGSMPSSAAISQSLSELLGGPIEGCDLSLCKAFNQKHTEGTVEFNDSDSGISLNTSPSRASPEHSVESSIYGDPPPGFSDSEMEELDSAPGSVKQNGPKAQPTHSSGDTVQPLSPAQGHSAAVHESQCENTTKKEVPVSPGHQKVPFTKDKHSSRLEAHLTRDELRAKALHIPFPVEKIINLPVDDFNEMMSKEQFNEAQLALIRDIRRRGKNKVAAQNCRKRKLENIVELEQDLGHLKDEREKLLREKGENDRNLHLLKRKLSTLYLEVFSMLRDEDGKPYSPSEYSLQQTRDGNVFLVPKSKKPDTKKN
# [2] = biological target: T1, Nuclear factor erythroid 2-related factor 2 (Rattus norvegicus); experiment: Activation of Nrf2/ARE in rat PC12 cells assessed as upregulation of HO-1 protein expression at 1 to 10 uM after 12 hrs by Western blot analysis; type: functional, cell-based; details: PC-12
# PC-12 [3] = experiment: Increase in intracellular ROS production in rat PC12 cells at 10 uM up to 1 hr by CM-H2-DCFDA staining-based fluorescence assay; type: functional, cell-based
# [4] = biological target: T1, Nuclear factor erythroid 2-related factor 2 (Rattus norvegicus); experiment: Activation of Nrf2/ARE in rat PC12 cells assessed as upregulation of HO-1 protein expression at 10 uM after 12 hrs by Western blot analysis; type: functional, cell-based; details: PC-12
# [5] = biological target: T1, Nuclear factor erythroid 2-related factor 2 (Rattus norvegicus); experiment: Activation of Nrf2/ARE in rat PC12 cells assessed as induction of NQO-1 protein expression by Western blot analysis; type: functional, cell-based; details: PC-12
# [6] = biological target: T1, Nuclear factor erythroid 2-related factor 2 (Rattus norvegicus); experiment: Activation of Nrf2/ARE in rat PC12 cells assessed as induction of GCSc protein expression at 10 uM by Western blot analysis; type: functional, cell-based; details: PC-12
# [7] = biological target: T1, Nuclear factor erythroid 2-related factor 2 (Rattus norvegicus); experiment: Induction of nuclear translocation of Nrf2 in rat PC12 cells at 10 uM after 6 hrs by Western blot analysis; type: functional, cell-based; details: PC-12
# [8] = biological target: Mitogen-activated protein kinase 3 (Rattus norvegicus) (UniProt P21708); experiment: Phosphorylation of ERK1 in rat PC12 cells at 10 uM after 30 mins by Western blot analysis; type: cell-based; details: PC-12
# PC-12 [9] = experiment: Neuroprotective activity against H2O2-induced oxidative stress in rat PC12 cells assessed as cell viability pretreated with 2 uM for 6 hrs measured before inducer addition; type: functional; details: read-out: Activity
# PC-12 [10] = experiment: Neuroprotective activity against H2O2-induced oxidative stress in rat PC12 cells expressing dominant-negative Nrf2 mutant assessed as cell viability pretreated with 10 uM for 6 hrs; type: functional, cell-based
# [11] = biological target: T1, Nuclear factor erythroid 2-related factor 2 (Rattus norvegicus); experiment: Activation of Nrf2/ARE in rat PC12 cells assessed as inhibition of H2O2-induced oxidative stress by measuring cell viability pretreated with 10 uM for 6 hrs in presence of HO-1 inhibitor Zn-protoporphyrin; type: functional, cell-based; details: PC-12
# PC-12 [12] = experiment: Increase in intracellular ROS production in rat PC12 cells assessed as NRF2-mediated HO-1 induction at 10 uM after 24 hrs by Western blot analysis; type: functional, cell-based
# [13] = biological target: Mitogen-activated protein kinase 1 (Rattus norvegicus) (UniProt P63086); experiment: Phosphorylation of ERK2 in rat PC12 cells at 10 uM after 30 mins by Western blot analysis; type: cell-based; details: PC-12
# [14] = biological target: T1, Nuclear factor erythroid 2-related factor 2 (Rattus norvegicus); experiment: Activation of Nrf2/ARE in rat PC12 cells assessed as upregulation of HO-1 protein expression at 10 uM after 6 hrs by Western blot analysis; type: functional, cell-based; details: PC-12
# [15] = biological target: T1, Nuclear factor erythroid 2-related factor 2 (Rattus norvegicus); experiment: Activation of Nrf2/ARE in rat PC12 cells assessed as effect on HO-1 protein level at 10 uM after 24 hrs by Western blot analysis; type: functional, cell-based; details: PC-12
# [16] = biological target: T1, Nuclear factor erythroid 2-related factor 2 (Rattus norvegicus); experiment: Induction of nuclear translocation of Nrf2 in rat PC12 cells at 10 uM after 1 hr by Western blot analysis; type: functional, cell-based; details: PC-12
# PC-12 [17] = experiment: Increase in intracellular ROS production in rat PC12 cells assessed as induction of p38 phosphorylation at 10 uM after 1 hr by Western blot analysis; type: functional, cell-based
# PC-12 [18] = experiment: Increase in intracellular ROS production in rat PC12 cells at 10 uM after 0.5 hr by CM-H2-DCFDA staining-based fluorescence assay; type: functional, cell-based
# [19] = biological target: T1, Nuclear factor erythroid 2-related factor 2 (Rattus norvegicus); experiment: Effect on Nrf2 protein in rat PC12 cell cytoplasmic fraction at 10 uM up to 6 hrs by Western blot analysis; type: functional, cell-based; details: PC-12
# PC-12 [20] = experiment: Increase in intracellular ROS production in rat PC12 cells assessed as NRF2-mediated HO-1 induction at 10 uM after 24 hrs pretreated with N-acetylcysteine for 1 hr before compound addition by Western blot analysis; type: functional, cell-based
# [21] = biological target: T1, Nuclear factor erythroid 2-related factor 2 (Rattus norvegicus); experiment: Activation of Nrf2/ARE in rat PC12 cells assessed as upregulation of HO-1 mRNA expression at 10 uM after 6 hrs by RT-PCR; type: functional, cell-based; details: PC-12
# PC-12 [22] = experiment: Phosphorylation of JNK in rat PC12 cells at 10 uM up to 120 mins by Western blot analysis; type: cell-based
# PC-12 [23] = experiment: Increase in intracellular ROS production in rat PC12 cells at 10 uM after 6 hrs by CM-H2-DCFDA staining-based fluorescence assay; type: functional, cell-based
# PC-12 [24] = experiment: Neuroprotective activity against H2O2-induced oxidative stress in rat PC12 cells assessed as cell viability pretreated with 5 uM for 6 hrs measured before inducer addition; type: functional; details: read-out: Activity
# PC-12 [25] = experiment: Phosphorylation of p38 kinase in rat PC12 cells at 10 uM up to 120 mins by Western blot analysis; type: cell-based
# PC-12 [26] = experiment: Increase in intracellular ROS production in rat PC12 cells assessed as induction of p38 phosphorylation at 10 uM after 1 hr pretreated with N-acetylcysteine for 1 hr before compound addition by Western blot analysis; type: functional, cell-based
# PC-12 [27] = experiment: Neuroprotective activity against H2O2-induced oxidative stress in rat PC12 cells assessed as cell viability pretreated with 10 uM for 6 hrs measured before inducer addition; type: functional; details: read-out: Activity
# Mitogen-activated protein kinase 3 (Rattus norvegicus), sequence (P21708 whole entry): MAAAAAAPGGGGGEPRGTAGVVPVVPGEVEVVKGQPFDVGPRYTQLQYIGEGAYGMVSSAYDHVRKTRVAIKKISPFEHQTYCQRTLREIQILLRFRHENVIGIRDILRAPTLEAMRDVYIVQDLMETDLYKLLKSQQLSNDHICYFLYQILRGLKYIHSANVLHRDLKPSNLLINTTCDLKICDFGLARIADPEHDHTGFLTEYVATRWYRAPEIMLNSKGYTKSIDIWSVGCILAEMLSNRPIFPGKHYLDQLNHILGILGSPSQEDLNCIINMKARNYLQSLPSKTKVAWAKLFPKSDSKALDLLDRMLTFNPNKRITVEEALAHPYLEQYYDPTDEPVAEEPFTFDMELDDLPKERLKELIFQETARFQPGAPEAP
# Mitogen-activated protein kinase 1 (Rattus norvegicus), sequence (P63086 whole entry): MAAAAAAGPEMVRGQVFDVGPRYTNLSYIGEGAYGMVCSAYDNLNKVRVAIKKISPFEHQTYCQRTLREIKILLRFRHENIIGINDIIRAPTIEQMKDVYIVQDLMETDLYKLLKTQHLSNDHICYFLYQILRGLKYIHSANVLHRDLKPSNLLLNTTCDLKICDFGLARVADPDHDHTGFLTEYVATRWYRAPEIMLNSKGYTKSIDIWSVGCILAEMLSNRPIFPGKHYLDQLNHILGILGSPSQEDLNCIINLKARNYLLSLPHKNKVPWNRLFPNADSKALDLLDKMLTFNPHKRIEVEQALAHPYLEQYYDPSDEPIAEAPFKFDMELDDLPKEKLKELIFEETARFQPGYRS
compound,measurement,setting,value
COc1cc([C@H]2OC[C@H]3[C@@H]2CO[C@@H]3c2ccc3c(c2)OCO3)ccc1O,Activity,[1],inactive
Oc1ccc(C2OC[C@@H]3C(c4ccc5c(c4)OCO5)OC[C@H]23)cc1O (some centres undefined),fold change (FC),[1],2
c1cc2c(cc1[C@H]1OC[C@H]3[C@@H]1CO[C@@H]3c1ccc3c(c1)OCO3)OCO2,Activity,[1],inactive
Oc1ccc([C@H]2OC[C@H]3[C@@H]2CO[C@@H]3c2ccc(O)c(O)c2)cc1O,Activity,[1],Active
Oc1ccc([C@H]2OC[C@H]3[C@@H]2CO[C@@H]3c2ccc3c(c2)OCO3)cc1O,Activity,[2],Dose-dependent effect
same,Activity,PC-12 [3],Active
same,Activity,[4],Active
same,Activity,[5],Active
same,Activity,[6],Active
same,Activity,[7],Active
same,Activity,[8],Active
same,viability at 2 µM,PC-12 [9],52%
same,Activity,PC-12 [10],inactive
same,Activity,[11],inactive
same,Activity,PC-12 [12],Active
same,Activity,[13],Active
same,Activity,[14],Active
same,Activity,[15],inactive
same,Activity,[16],Active
same,Activity,PC-12 [17],Active
same,Activity,PC-12 [18],Active
same,Activity,[19],inactive
same,Activity,PC-12 [20],inactive
same,fold change (FC),[21],6
same,Activity,PC-12 [22],Active
same,Activity,PC-12 [23],inactive
same,viability at 5 µM,PC-12 [24],67%
same,fold change (FC),[1],2
same,Activity,PC-12 [25],Active
same,Activity,PC-12 [26],inactive
same,viability at 10 µM,PC-12 [27],82%
c1cc2c(cc1[C@H]1OC[C@H]3[C@@H]1CO[C@H]3c1ccc3c(c1)OCO3)OCO2,Activity,[1],inactive
Oc1ccc([C@H]2OC[C@H]3[C@@H]2CO[C@H]3c2ccc(O)c(O)c2)cc1O,Activity,[1],inactive
COc1cc(C2OC[C@@H]3C(c4ccc5c(c4)OCO5)OC[C@H]23)ccc1O (mixture of isomers),Activity,[1],inactive
